Assays:
Type in all cases: functional, cell-based
[1] = target: T1, ATP-dependent translocase ABCB1 (Homo sapiens, UniProt P08183); experiment: TP_TRANSPORTER: drug resistance in […]-expressing SWI573/SI(I.I) cells
[2] = target: T1, ATP-dependent translocase ABCB1; experiment: TP_TRANSPORTER: drug resistance in 2780AD cells
[3] = target: T1, ATP-dependent translocase ABCB1; experiment: TP_TRANSPORTER: drug resistance in 2RI60 cells
[4] = target: T1, ATP-dependent translocase ABCB1; experiment: TP_TRANSPORTER: drug resistance in MDR1-expressing BROmdr cells

Measured: Activity

T1 sequence (P08183 whole entry): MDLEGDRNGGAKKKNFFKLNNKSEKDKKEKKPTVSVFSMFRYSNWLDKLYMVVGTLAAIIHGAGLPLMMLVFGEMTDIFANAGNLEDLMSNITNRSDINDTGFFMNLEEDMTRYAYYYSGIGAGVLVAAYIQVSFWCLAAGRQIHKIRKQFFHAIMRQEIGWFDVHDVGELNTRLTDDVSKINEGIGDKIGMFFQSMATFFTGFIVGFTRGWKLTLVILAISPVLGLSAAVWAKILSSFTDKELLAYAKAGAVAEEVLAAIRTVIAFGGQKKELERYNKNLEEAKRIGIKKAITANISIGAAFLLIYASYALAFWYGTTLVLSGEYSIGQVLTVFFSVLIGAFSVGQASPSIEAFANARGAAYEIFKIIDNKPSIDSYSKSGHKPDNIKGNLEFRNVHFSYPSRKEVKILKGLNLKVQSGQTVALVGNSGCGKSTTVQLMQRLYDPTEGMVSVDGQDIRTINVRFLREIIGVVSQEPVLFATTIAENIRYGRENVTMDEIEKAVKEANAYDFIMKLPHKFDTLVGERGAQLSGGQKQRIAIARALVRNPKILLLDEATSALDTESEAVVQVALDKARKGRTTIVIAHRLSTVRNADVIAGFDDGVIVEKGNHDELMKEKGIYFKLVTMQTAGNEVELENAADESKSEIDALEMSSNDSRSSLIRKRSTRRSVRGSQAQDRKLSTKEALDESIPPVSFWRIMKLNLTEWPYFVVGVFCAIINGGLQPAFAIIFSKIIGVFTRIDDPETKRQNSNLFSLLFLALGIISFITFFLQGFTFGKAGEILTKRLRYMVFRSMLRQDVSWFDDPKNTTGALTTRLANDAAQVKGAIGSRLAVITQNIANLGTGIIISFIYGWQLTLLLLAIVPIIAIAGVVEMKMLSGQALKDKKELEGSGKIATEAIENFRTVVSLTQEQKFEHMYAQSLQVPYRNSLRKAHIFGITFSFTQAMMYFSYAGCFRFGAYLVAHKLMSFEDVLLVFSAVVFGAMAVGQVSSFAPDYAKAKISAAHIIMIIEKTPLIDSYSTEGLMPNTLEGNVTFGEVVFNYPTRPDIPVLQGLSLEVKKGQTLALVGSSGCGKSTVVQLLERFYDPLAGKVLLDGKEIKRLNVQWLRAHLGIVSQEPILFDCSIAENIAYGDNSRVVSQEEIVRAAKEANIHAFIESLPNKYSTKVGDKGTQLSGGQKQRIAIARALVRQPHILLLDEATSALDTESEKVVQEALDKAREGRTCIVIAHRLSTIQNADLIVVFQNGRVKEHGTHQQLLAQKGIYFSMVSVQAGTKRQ

Nc1ccn([C@@H]2O[C@H](CO)[C@@H](O)C2(F)F)c(=O)n1 [GEMCITABINE]
substrate [+]: [1] | [2] | [3] | [4]
